Measurements reported in patent publication US11318154B2 (priority 2019, dated 2022).

What was measured:
C. difficile VPI 10463 = experiment: C. difficile mice model (spore challenge), survival; type: in vivo; settings: C57BL/6 mice, 1×10^5 C. difficile VPI10463 spores by gavage, daily injection
Experimental: To further determine the in vivo protective effect of glycyrrhizin on mice, a C. difficile mice model was established particularly the one as described in Guo, S. et al, (2015), Vaccine 33, 1586-1595. Briefly, C57BL/6 mice were given water mixed with a mixture of kanamycin (Sigma, MO) (0.4×10^−3 mg/L), gentamicin (Sigma, MO) (0.035×10^−3 mg/L), colistin (Sigma, MO) (850 U/mL), metronidazole (Sigma, MO) (0.215×10^−3 mg/L), and vancomycin (Sigma, MO) (0.045×10^−3 mg/L) for 3 days. All mice were then provided with regular autoclaved water for 2 days and administered with a single dose of clindamycin (Sigma, MO) (10 mg/kg) intraperitoneally 1 day before the C. difficile challenge. Mice were injected with glycyrrhizin daily on or before the day of C. difficile VPI 10463 spores challenge. All mice were then challenged with 1×10^5 of prepared C. difficile (strain VPI10463) spores by gavage feeding. The mice were intensively monitored daily after challenge for the presence and severity of diarrhea and other symptoms of illness or mortality. Body weight was measured once a day at the same time each day. Mice judged to be in a moribund state were euthanized by carbon dioxide.

[1] = test system: TcdB-induced disruption in colon epithelium; experiment: Mice colon ligation loop model with TcdB injection, H&E histological scoring; type: in vivo, C57BL/6 mice; settings: intraperitoneal pre-treatment daily for two days, 10 μg TcdB in loop, 8 h
Experimental: The inventors used a mice colon ligation loop model to mimic C. difficile infection as TcdB is released into the lumen of the colon during C. difficile infection. All procedures were performed according to the animal protocol approved by the Cornell University IACUC (2017-0112). 6-8 weeks old of C57BL/6 mice were administrated with glycyrrhizin acid (50 mg/kg) daily via intraperitoneal injection two days before surgery. After overnight fasting, mice were anaesthetized and dissected via a midline laparotomy. A length of about 2 cm colon tissue was ligated and either saline or TcdB was injected into ligated loop for treatment. Mice were sutured and allowed to recover. After 8 hours, mice were euthanized and the ligated colon segments were excised and subjected to H&E staining. HE scoring was blindly assessed by a pathologist.

Which results are given for `CC1(C)[C@@H](O[C@H]2O[C@H](C(=O)O)[C@@H](O)[C@H](O)[C@H]2O[C@@H]2O[C@H](C(=O)O)[C@@H](O)[C@H](O)[C@H]2O)CC[C@]2(C)[C@H]3C(=O)C=C4[C@@H]5C[C@@](C)(C(=O)O)CC[C@]5(C)CC[C@@]4(C)[C@]3(C)CC[C@@H]12` [glycyrrhizin]?
survival at the end of experiment (C. difficile VPI 10463): 100%; epithelial layer damage of ligated colon tissue (histology) [1]: less epithelial layer damages
